Laboratory results taken from ChEMBL document CHEMBL1125972, “Synthesis of chemoreversible prodrugs of ARA-C” (Bioorg Med Chem Lett, 1991).

Test: Half life value was determined
Assay type: ADME

Which half-life does the source give for `CC(C)(NC(=O)[C@@H](N)Cc1ccc(OCc2ccccc2)cc1)C(=O)Nc1ccn(C2O[C@H](CO)[C@@H](O)[C@@H]2O)c(=O)n1` (stereo partly specified) here?
The half-life was 42 h.

With `CC(C)(NC(=O)CO)C(=O)Nc1ccn(C2O[C@H](CO)[C@@H](O)[C@@H]2O)c(=O)n1` (stereo partly specified) as the compound, how does the half-life read?
The half-life was 360 h.

Which half-life does the source give for `CC(=O)[O-].CC(C)(NC(=O)CO)C(=O)Nc1ccn(C2O[C@H](CO)[C@@H](O)[C@@H]2O)c(=O)n1.[Na+]` (stereo partly specified) here?
Its half-life is 1.4 h.

With `CC(=O)O.CC(C)(NC(=O)[C@@H](N)Cc1ccc(OCc2ccccc2)cc1)C(=O)Nc1ccn(C2O[C@H](CO)[C@@H](O)[C@@H]2O)c(=O)n1` (stereo partly specified) as the compound, how does the half-life read?
Its half-life is 31 h.

Which half-life does the source give for `CC(=O)O.CC(C)(NC(=O)CO)C(=O)Nc1ccn(C2O[C@H](CO)[C@@H](O)[C@@H]2O)c(=O)n1` (stereo partly specified) here?
The half-life was 860 h.

For `CC(=O)[O-].CC(C)(NC(=O)[C@@H](N)Cc1ccc(OCc2ccccc2)cc1)C(=O)Nc1ccn(C2O[C@H](CO)[C@@H](O)[C@@H]2O)c(=O)n1.[Na+]` (stereo partly specified), which half-life is on record?
Its half-life is 0.3 h.
